Reference: US6867299B2, “Oxamide IMPDH inhibitors” (Hoffmann-La Roche Inc., priority 2000, dated 2005)
Counter-ions that a name gives are not always drawn.

Biological target: IMPDH (human type II) (Homo sapiens, UniProt P12268)
Experiment: IMPDH inhibitor assay, spectrophotometric (NADH formation at 340 nm)
Format: biochemical
Details: 37° C., pH8.0, 2.5% DMSO, 10 concentrations of inhibitor
Method: IMPDH activity can be assayed using an adaptation of the method reported by Carr [S. Carr et al., J. Biol. Chem. 268, p.27286 (1993)], the disclosure of which is herein incorporated by reference. IMPDH activity was measured spectrophotometrically, by monitoring the increase in absorbance at 340 nm due to the formation of NADH (ε340 is 6220 M−1 cm−1) from the reduction of NAD. The IMPDH reaction mixture contained 0.1M Tris pH8.0, 0.1M KCl, 1 mM DTT, 3 mM EDTA, […]. The reaction was initiated by the addition of IMPDH (human type II) to a final concentration in the assay of between 1 nM and 5 nM with respect to the IMPDH tetramer. The initial rate is measured by following the linear increase in absorbance at 340 nm at 37° C. for 45 minutes. The reading was conducted using a Spectromax 190 (Molecular Devices) spectrophotometer in a 96 well plate format with a final reaction volume of 200 μl.
For inhibitor assay analysis, the compound is dissolved in DMSO to a final concentration of 10 mM and added to the initial reaction mixture as 5 μl to give final DMSO concentration of 2.5%. The enzyme reaction is initiated by the addition of IMPDH and the initial rates measured as above. IC50 determinations are made by measuring the initial rates in the presence of 10 concentrations of inhibitor and fitting the data using the 4 parameter curve fit from the Softmax pro software (Molecular Devices).

Structure (SMILES): COc1cc(NC(=O)C(=O)NC(C)(C)CO)ccc1-c1cnco1 [N-(2-Hydroxy-1,1-dimethylethyl)-N′-[3-methoxy-4-(5-oxazolyl)phenyl]oxalamide]
- IC50: 72 nM

Structure (SMILES): COc1cc(NC(=O)C(=O)NC(C)(C)C)ccc1-c1cnco1 [N-tert-Butyl-N′-[3-methoxy-4-(5-oxazolyl)phenyl]oxalamide]
- IC50: 37 nM

Structure (SMILES): COc1cc(NC(=O)C(=O)Nc2cccnc2)ccc1-c1cnco1 [N-[3-Methoxy-4-(5-oxazolyl)phenyl]-N′-(3-pyridyl)oxalamide]
- IC50: 277 nM

Structure (SMILES): COc1cc(NC(=O)C(=O)Nc2cccc(CNC(=O)c3ccccc3)c2)ccc1-c1cnco1 [N-[3-(Benzamidomethyl)phenyl]-N′-[3-methoxy-4-(5-oxazolyl)phenyl]oxalamide]
- IC50: 13 nM

Structure (SMILES): C#CC(C)(C)NC(=O)C(=O)Nc1ccc(-c2cnco2)c(OC)c1 [N-(1,1-Dimethylpropargyl)-N′-[3-methoxy-4-(5-oxazolyl)phenyl]oxalamide]
- IC50: 48 nM

Structure (SMILES): COc1cc(NC(=O)C(=O)NC(C)(C)Cc2ccc([N+](=O)[O-])cc2)ccc1-c1cnco1 [N-[3-Methoxy-4-(5-oxazolyl)phenyl]-N′-[1,1-dimethyl-2-(4-nitrophenyl)ethyl]oxalamide]
- IC50: 10 nM

Structure (SMILES): COc1cc(NC(=O)C(=O)NC(C)(C)CC(C)(C)C)ccc1-c1cnco1 [N-[3-Methoxy-4-(5-oxazolyl)phenyl]-N′-(1,1,3,3-tetramethyl-butyl)oxalamide]
- IC50: 34 nM

Structure (SMILES): CNC(=O)C(C)(C)NC(=O)C(=O)Nc1ccc(-c2cnco2)c(OC)c1 [N-[3-Methoxy-4-(5-oxazolyl)phenyl]-N′-[1-methyl-1-(methylcarbamoyl)ethyl]oxalamide]
- IC50: 199 nM

Structure (SMILES): COc1cc(NC(=O)C(=O)Nc2cccc(CNC(=O)OC(C)(C)C)c2)ccc1-c1cnco1 [tert-Butyl [3-[[[3-methoxy-4-(5-oxazolyl)anilino]oxalyl]amino]benzyl]carbamate]
- IC50: 36 nM

Structure (SMILES): CCC(C)(C)NC(=O)C(=O)Nc1ccc(-c2cnco2)c(OC)c1 [N-(1,1-Dimethylpropyl)-N′-[3-methoxy-4-(5-oxazolyl)phenyl]oxalamide]
- IC50: 31 nM

Structure (SMILES): COC(=O)NCc1cccc(NC(=O)C(=O)Nc2ccc(-c3cnco3)c(OC)c2)c1 [Methyl [3-[[[3-methoxy-4-(5-oxazolyl)anilino]oxalyl]amino]benzyl] carbamate]
- IC50: 121 nM

Structure (SMILES): COc1cc(NC(=O)C(=O)Nc2cccc(CC(=O)Nc3ccccc3)c2)ccc1-c1cnco1 [N-[3-Methoxy-4-(5-oxazolyl)phenyl]-N′-[3-[(phenylcarbamoyl)methyl]phenyl]oxalamide]
- IC50: 35 nM

Structure (SMILES): COc1cc(NC(=O)C(=O)NC(C)(C)CN)ccc1-c1cnco1 [N-(2-Amino-1,1-dimethylethyl)-N′-[3-methoxy-4-(5-oxazolyl)kphenyl]oxalamide trifluoroacetate (1:1)]
- IC50: 97 nM

Structure (SMILES): COc1cc(NC(=O)C(=O)NC(C)(C)Cc2ccccc2)ccc1-c1cnco1 [N-(1,1-Dimethyl-2-phenylethyl)-N′-[3-methoxy-4-(5-oxazolyl)phenyl]oxalamide]
- IC50: 15 nM

Structure (SMILES): COc1cc(NC(=O)C(=O)Nc2cccc(CNS(=O)(=O)c3ccccc3)c2)ccc1-c1cnco1 [N-[3-[(Benzenesulfonamido)methyl]phenyl]-N′-[3-methoxy-4-(5-oxazolyl)phenyl]oxalamide]
- IC50: 125 nM

Structure (SMILES): COc1cc(NC(=O)C(=O)NC(C)(C)C)ccc1-c1cocn1 [N-tert-Butyl-N′-[3-methoxy-4-(4-oxazolyl)phenyl]oxalamide]
- IC50: 460 nM

Structure (SMILES): CC(C)(C)NC(=O)C(=O)Nc1ccc(-c2cnco2)c(Cl)c1 [N-tert-Butyl-N′-[3-chloro-4-(5-oxazolyl)phenyl]oxalamide]
- IC50: 169 nM

Structure (SMILES): COc1cc(NC(=O)C(=O)Nc2cccc(CN)c2)ccc1-c1cnco1 [N-[3-(Aminomethyl)phenyl]-N′-[3-methoxy-4-(5-oxazolyl)phenyl]oxalamide trifluoroacetate (1:1)]
- IC50: 233 nM

Structure (SMILES): COc1cc(NC(=O)C(=O)NC(C)(C)CNC(=O)OC(C)(C)C)ccc1-c1cnco1 [tert-Butyl [2-[[[3-methoxy-4-(5-oxazolyl)anilino]oxalyl]amino]-2-methylpropyl]carbamate]
- IC50: 75 nM

Structure (SMILES): COc1cc(NC(=O)C(=O)Nc2cccc(CNC(=O)OC(C)C)c2)ccc1-c1cnco1 [Isopropyl [3-[[[3-methoxy-4-(5-oxazolyl)anilino]oxalyl]amino]benzyl]carbamate]
- IC50: 33 nM

Structure (SMILES): COc1cc(NC(=O)C(=O)Nc2cccc(CNC(=O)O[C@H]3CCOC3)c2)ccc1-c1cnco1 [[3-[[[3-Methoxy-4-(5-oxazolyl)anilino]oxalyl]amino]benzyl]carbamic acid tetrahydro-3(S)-furyl ester]
- IC50: 44 nM

Structure (SMILES): COc1cc(NC(=O)C(=O)NC(C)(C)CN(C)C)ccc1-c1cnco1 [N-(2-Dimethylamino-1,1-dimethylethyl)-N′-[3-methoxy-4-(5-oxazolyl)phenyl]oxalamide hydrochloride (1:1)]
- IC50: 170 nM

Structure (SMILES): COc1cc(NC(=O)C(=O)NC(C)(C)c2ccccc2)ccc1-c1cnco1 [N-[3-Methoxy-4-(5-oxazolyl)phenyl]-N′-(1-methyl-1-phenylethyl)oxalamide]
- IC50: 30 nM

Structure (SMILES): COc1cc(NC(=O)C(=O)Nc2cccc(CNC(=O)Oc3ccccc3)c2)ccc1-c1cnco1 [Phenyl [3-[[[4-(5-oxazolyl)anilino]oxalyl]amino]benzyl]carbamate]
- IC50: 11 nM
